These results are taken from US12486240B2, “Oxadiazole compounds for controlling or preventing phytopathogenic fungi” (PI INDUSTRIES LTD., priority 2019, dated 2025).

This test concerns Phakopsora pachyrhizi. In words: Phakopsora pachyrhizi test on soybean (preventive spray). It counts as in vivo. Conditions: preventive spray on soybean plants, inoculated one day after treatment, rated 3, 7, 10 and 15 days after application, read-out: Efficacy (% control) from disease severity rating versus untreated control. As to the method:
Example 5: Phakopsora pachyrhizi Test on Soybean Compounds were dissolved in 2% dimethyl sulfoxide/acetone and then mixed with water containing an emulsifier to a calibrated spray volume of 50 mL. This 50 mL spray solution was poured into spray bottles for further applications. To test the preventive activity of compounds, healthy young Soybean plants raised in the greenhouse were sprayed with the active compound preparation at the stated application rates inside the spray cabinets using hollow cone nozzles. One day after treatment, the plants were inoculated with a spore suspension containing 2×10^5 Phakopsora pachyrhizi conidia. The inoculated plants were then kept in a greenhouse chamber at 22-24° C. temperature and 80-90% relative humidity for disease expression. A visual assessment of the compound's performance was carried out by rating the disease severity (0-100% scale) on treated plants 3, 7, 10 and 15 days after application. Efficacy (% control) of the compounds was calculated by comparing the disease rating in the treatment with the one of the untreated control. The sprayed plants were also assessed for plant compatibility by recording symptoms like necrosis, chlorosis and stunting.
As for `CN(Cc1ccccc1)c1c(Nc2ccc(-c3noc(C(F)(F)F)n3)cc2)c(=O)c1=O` [Compound 1, 3-(benzyl(methyl)amino)-4-((4-(5-(trifluoromethyl)-1,2,4-oxadiazol-3-yl)phenyl)amino)cyclobut-3-ene-1,2-dione], the pest or weed control at 500 ppm was not below 70%.
Next, `COc1c(Nc2ccc(-c3noc(C(F)(F)F)n3)cc2)c(=O)c1=O` [Compound 2, 3-methoxy-4((4-(5-(trifluoromethyl)-1,2,4-oxadiazol-3-yl)phenyl)amino)cyclobut-3-ene-1,2-dione]: not below 70%; `O=c1c(Nc2ccc(-c3noc(C(F)(F)F)n3)cc2)c(N2CCOCC2)c1=O` [Compound 4, 3-morpholino-4((4-(5-(trifluoromethyl)-1,2,4-oxadiazol-3-yl)phenyl)amino)cyclobut-3-ene-1,2-dione]: not below 70%; `COC1CCN(c2c(Nc3ccc(-c4noc(C(F)(F)F)n4)cc3)c(=O)c2=O)C1` (stereo not drawn) [Compound 5, 3-(3-methoxypyrrolidin-1-yl)-4-((4-(5-(trifluoromethyl)-1,2,4-oxadiazol-3-yl)phenyl)amino)cyclobut-3-ene-1,2-dione]: not below 70%.
Next, `CCOC1CN(c2c(Nc3ccc(-c4noc(C(F)(F)F)n4)cc3)c(=O)c2=O)C1` [Compound 6, 3-(3-ethoxyazetidin-1-yl)-4-((4-(5-(trifluoromethyl)-1,2,4-oxadiazol-3-yl)phenyl)amino)cyclobut-3-ene-1,2-dione]: not below 70%.
Next, `O=c1c(Nc2ccc(-c3noc(C(F)(F)F)n3)cc2)c(N2CCC2)c1=O` [Compound 9, 3-(azetidin-1-yl)-4-((4-(5-(trifluoromethyl)-1,2,4-oxadiazol-3-yl)phenyl)amino)cyclobut-3-ene-1,2-dione]: not below 70%.
As for `CN(Cc1cc(F)cc(F)c1)c1c(Nc2ccc(-c3noc(C(F)(F)F)n3)cc2)c(=O)c1=O` [Compound 10, 3((3,5-difluorobenzyl)(methyl)amino)-4-((4-(5-(trifluoromethyl)-1,2,4-oxadiazol-3-yl)phenyl)amino)cyclobut-3-ene-1,2-dione], the pest or weed control at 500 ppm was not below 70%.
Next, `CCCN(C)c1c(Nc2ccc(-c3noc(C(F)(F)F)n3)cc2)c(=O)c1=O` [Compound 11, 3-(methyl(propyl)amino)-4-((4-(5-(trifluoromethyl)-1,2,4-oxadiazol-3-yl)phenyl)amino)cyclobut-3-ene-1,2-dione]: not below 70%; `CN(C)c1c(Nc2ccc(-c3noc(C(F)(F)F)n3)cc2)c(=O)c1=O` [Compound 12, 3-(dimethylamino)-4-((4-(5-(trifluoromethyl)-1,2,4-oxadiazol-3-yl)phenyl)amino)cyclobut-3-ene-1,2-dione]: not below 70%; `O=C1CN(c2c(Nc3ccc(-c4noc(C(F)(F)F)n4)cc3)c(=O)c2=O)CCN1` [Compound 13, 3-(3-oxopiperazin-1-yl)-4-((4-(5-(trifluoromethyl)-1,2,4-oxadiazol-3-yl)phenyl)amino)cyclobut-3-ene-1,2-dione]: not below 70%.
In the case of `C=CCN(C)c1c(Nc2ccc(-c3noc(C(F)(F)F)n3)cc2)c(=O)c1=O` [Compound 14, 3-(allyl(methyl)amino)-4-((4-(5-(trifluoromethyl)-1,2,4-oxadiazol-3-yl)phenyl)amino)cyclobut-3-ene-1,2-dione] it was not below 70%; in that of `N#CC1CCN(c2c(Nc3ccc(-c4noc(C(F)(F)F)n4)cc3)c(=O)c2=O)C1` (stereo not drawn) [Compound 15, 1-(3,4-dioxo-2-((4-(5-(trifluoromethyl)-1,2,4-oxadiazol-3-yl)phenyl)amino)cyclobut-1-en-1-yl)pyrrolidine-3-carbonitrile], not below 70%.
Next, `CN1CCN(c2c(Nc3ccc(-c4noc(C(F)(F)F)n4)cc3)c(=O)c2=O)CC1` [Compound 16, 3-(4-methylpiperazin-1-yl)-4-((4-(5-(trifluoromethyl)-1,2,4-oxadiazol-3-yl)phenyl)amino)cyclobut-3-ene-1,2-dione]: not below 70%; `O=c1c(NCc2ccc(-c3noc(C(F)(F)F)n3)cc2)c(N2CCOCC2)c1=O` [Compound 17, 3-morpholino-4-((4-(5-(trifluoromethyl)-1,2,4-oxadiazol-3-yl)benzyl)amino)cyclobut-3-ene-1,2-dione]: not below 70%; `COc1c(NCc2ccc(-c3noc(C(F)(F)F)n3)cc2)c(=O)c1=O` [Compound 18, 3-methoxy-4-((4-(5-(trifluoromethyl)-1,2,4-oxadiazol-3-yl)benzyl)amino)cyclobut-3-ene-1,2-dione]: not below 70%.
As to `COCCNc1c(NCc2ccc(-c3noc(C(F)(F)F)n3)cc2)c(=O)c1=O` [Compound 19, 3-((2-methoxyethyl)amino)-4-((4-(5-(trifluoromethyl)-1,2,4-oxadiazol-3-yl)benzyl)amino)cyclobut-3-ene-1,2-dione], the pest or weed control at 500 ppm was not below 70%.
Regarding `C=CCNc1c(NCc2ccc(-c3noc(C(F)(F)F)n3)cc2)c(=O)c1=O` [Compound 20, 3-(allylamino)-4-((4-(5-(trifluoromethyl)-1,2,4-oxadiazol-3-yl)benzyl)amino)cyclobut-3-ene-1,2-dione], the pest or weed control at 500 ppm was not below 70%.
Next, `O=c1c(NCc2ccc(-c3noc(C(F)(F)F)n3)cc2)c(N2CCSCC2)c1=O` [Compound 31, 3-thiomorpholino-4-((4-(5-(trifluoromethyl)-1,2,4-oxadiazol-3-yl)benzyl)amino)cyclobut-3-ene-1,2-dione]: not below 70%; `O=c1c(NCc2ccc(-c3noc(C(F)(F)F)n3)cc2)c(N2CC(O)C2)c1=O` [Compound 32, 3-(3-hydroxyazetidin-1-yl)-4-((4-(5-(trifluoromethyl)-1,2,4-oxadiazol-3-yl)benzyl)amino)cyclobut-3-ene-1,2-dione]: not below 70%; `O=c1c(NCc2ccc(-c3noc(C(F)(F)F)n3)cc2)c(N2CCC(F)(F)C2)c1=O` [Compound 33, 3-(3,3-difluoropyrrolidin-1-yl)-4-((4-(5-(trifluoromethyl)-1,2,4-oxadiazol-3-yl)benzyl)amino)cyclobut-3-ene-1,2-dione]: not below 70%.
Next, `COc1c(N(C)Cc2ccc(-c3noc(C(F)(F)F)n3)cc2)c(=O)c1=O` [Compound 41, 3-methoxy-4-(methyl(4-(5-(trifluoromethyl)-1,2,4-oxadiazol-3-yl)benzyl)amino)cyclobut-3-ene-1,2-dione]: not below 70%.
In the case of `CN(Cc1ccc(-c2noc(C(F)(F)F)n2)cc1)c1c(N2CCOCC2)c(=O)c1=O` [Compound 42, 3-(methyl(4-(5-(trifluoromethyl)-1,2,4-oxadiazol-3-yl)benzyl)amino)-4-morpholinocyclobut-3-ene-1,2-dione] it was not below 70%; in that of `CN(Cc1ccc(-c2noc(C(F)(F)F)n2)cc1)c1c(N2CCCC2)c(=O)c1=O` [Compound 44, 3-(methyl(4-(5-(trifluoromethyl)-1,2,4-oxadiazol-3-yl)benzyl)amino)-4-(pyrrolidin-1-yl)cyclobut-3-ene-1,2-dione], not below 70%; in that of `COC1CN(c2c(N(C)Cc3ccc(-c4noc(C(F)(F)F)n4)cc3)c(=O)c2=O)C1` [Compound 45, 3-(3-methoxyazetidin-1-yl)-4-(methyl(4-(5-(trifluoromethyl)-1,2,4-oxadiazol-3-yl)benzyl)amino)cyclobut-3-ene-1,2-dione], not below 70%.
Turning to `CN(Cc1ccc(-c2noc(C(F)(F)F)n2)cc1)c1c(N2CC(C#N)C2)c(=O)c1=O` [Compound 46, 1-(2-(methyl(4-(5-(trifluoromethyl)-1,2,4-oxadiazol-3-yl)benzyl)amino)-3,4-dioxocyclobut-1-en-1-yl)azetidine-3-carbonitrile], the pest or weed control at 500 ppm was not below 70%.
In the case of `CN(Cc1ccc(-c2noc(C(F)(F)F)n2)cc1)c1c(N2CCC2)c(=O)c1=O` [Compound 47, 3-(azetidin-1-yl)-4-(methyl(4-(5-(trifluoromethyl)-1,2,4-oxadiazol-3-yl)benzyl)amino)cyclobut-3-ene-1,2-dione] it was not below 70%; in that of `CC(C)OC1CN(c2c(N(C)Cc3ccc(-c4noc(C(F)(F)F)n4)cc3)c(=O)c2=O)C1` [Compound 48, 3-(3-isopropoxyazetidin-1-yl)-4-(methyl(4-(5-(trifluoromethyl)-1,2,4-oxadiazol-3-yl)benzyl)amino)cyclobut-3-ene-1,2-dione], not below 70%; in that of `CN(Cc1ccc(-c2noc(C(F)(F)F)n2)cc1)c1c(N2CC3(COC3)C2)c(=O)c1=O` [Compound 49, 3-(methyl(4-(5-(trifluoromethyl)-1,2,4-oxadiazol-3-yl)benzyl)amino)-4-(2-oxa-6-azaspiro[3.3]heptan-6-yl)cyclobut-3-ene-1,2-dione], not below 70%.
Turning to `CN(Cc1ccc(-c2noc(C(F)(F)F)n2)cc1)c1c(N2CCC(F)(F)C2)c(=O)c1=O` [Compound 50, 3-(3,3-difluoropyrrolidin-1-yl)-4-(methyl(4-(5-(trifluoromethyl)-1,2,4-oxadiazol-3-yl)benzyl)amino)cyclobut-3-ene-1,2-dione], the pest or weed control at 500 ppm was not below 70%.
In the case of `CC(C)Nc1c(N(C)Cc2ccc(-c3noc(C(F)(F)F)n3)cc2)c(=O)c1=O` [Compound 51, 3-(isopropylamino)-4-(methyl(4-(5-(trifluoromethyl)-1,2,4-oxadiazol-3-yl)benzyl)amino)cyclobut-3-ene-1,2-dione] it was not below 70%.
